Results reported in PubChem BioAssay (NCI).
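Step 1: Grow cells in 96-well plates. Step 2: Expose to compound for 48 hours at 5 concentrations. Step 3: Interpolate endpoints linearly; if unreached, use highest concentration. GI50 marks 50% less growth. Definition used: TGI = concentration required for complete inhibition of growth.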

How the values were obtained:
Test in all cases: NCI anticancer screen, dose series, 48 h
PC-3 prostate = tested on: PC-3 prostate
MDA-MB-435 = tested on: MDA-MB-435
NCI-H460 lung = tested on: NCI-H460 lung
MCF7 breast = tested on: MCF7 breast
U251 CNS = tested on: U251 CNS
SK-MEL-5 melanoma = tested on: SK-MEL-5 melanoma
HCT-116 colon = tested on: HCT-116 colon
KM12 colon = tested on: KM12 colon
SF-539 CNS = tested on: SF-539 CNS
RPMI-8226 leukemia = tested on: RPMI-8226 leukemia
EKVX NSCLC = tested on: EKVX NSCLC
SK-OV-3 ovarian = tested on: SK-OV-3 ovarian
OVCAR-3 ovarian = tested on: OVCAR-3 ovarian
NCI-H226 lung = tested on: NCI-H226 lung
SK-MEL-28 melanoma = tested on: SK-MEL-28 melanoma
CAKI-1 renal = tested on: CAKI-1 renal
MDA-MB-231 breast = tested on: MDA-MB-231 breast
HCC-2998 colon = tested on: HCC-2998 colon
SNB-19 CNS = tested on: SNB-19 CNS
UACC-257 melanoma = tested on: UACC-257 melanoma
HT29 colon = tested on: HT29 colon
UACC-62 melanoma = tested on: UACC-62 melanoma
K-562 leukemia = tested on: K-562 leukemia
M14 melanoma = tested on: M14 melanoma
SK-MEL-2 melanoma = tested on: SK-MEL-2 melanoma
RXF 393 renal = tested on: RXF 393 renal
NCI-H522 lung = tested on: NCI-H522 lung
A498 renal = tested on: A498 renal
HL-60(TB) leukemia = tested on: HL-60(TB) leukemia
ACHN renal = tested on: ACHN renal
SF-268 CNS = tested on: SF-268 CNS
BT-549 breast = tested on: BT-549 breast
CCRF-CEM leukemia = tested on: CCRF-CEM leukemia
TK-10 renal = tested on: TK-10 renal
A549 NSCLC = tested on: A549 NSCLC
DU-145 prostate = tested on: DU-145 prostate
IGROV1 ovarian = tested on: IGROV1 ovarian
SN12C renal = tested on: SN12C renal
OVCAR-4 ovarian = tested on: OVCAR-4 ovarian
HS 578T breast = tested on: HS 578T breast
UO-31 renal = tested on: UO-31 renal
HCT-15 colon = tested on: HCT-15 colon
HOP-92 NSCLC = tested on: HOP-92 NSCLC
SF-295 CNS = tested on: SF-295 CNS
SW-620 colon = tested on: SW-620 colon
MALME-3M melanoma = tested on: MALME-3M melanoma
MOLT-4 leukemia = tested on: MOLT-4 leukemia
786-0 renal = tested on: 786-0 renal
SNB-75 CNS = tested on: SNB-75 CNS
NCI-H23 lung = tested on: NCI-H23 lung
NCI/ADR-RES ovarian = tested on: NCI/ADR-RES ovarian
LOX IMVI melanoma = tested on: LOX IMVI melanoma
HOP-62 NSCLC = tested on: HOP-62 NSCLC
OVCAR-8 ovarian = tested on: OVCAR-8 ovarian
COLO 205 colon = tested on: COLO 205 colon
OVCAR-5 ovarian = tested on: OVCAR-5 ovarian

## COc1ccc(/C(C)=C(\c2ccc(Cl)cc2)c2ccc(OCCN3CCCC3)cc2)cc1
PC-3 prostate
  GI50: 3.39 µM
  TGI: 7.52 µM
MDA-MB-435
  GI50: 1.84 µM
  TGI: 6.14 µM
NCI-H460 lung
  GI50: 3.36 µM
  TGI: 7.46 µM
MCF7 breast
  GI50: 0.887 µM
  TGI: 5.83 µM
U251 CNS
  GI50: 3.9 µM
  TGI: 8.3 µM
SK-MEL-5 melanoma
  GI50: 1.26 µM
  TGI: 4.64 µM
HCT-116 colon
  GI50: 1.55 µM
  TGI: 5.78 µM
KM12 colon
  GI50: 1.98 µM
  TGI: 6.6 µM
SF-539 CNS
  GI50: 4.32 µM
  TGI: 8.59 µM
RPMI-8226 leukemia
  GI50: 3.66 µM
  TGI: 10 µM
EKVX NSCLC
  GI50: 2.97 µM
  TGI: 7.3 µM
SK-OV-3 ovarian
  GI50: 6.03 µM
  TGI: 10.7 µM
OVCAR-3 ovarian
  GI50: 5.16 µM
  TGI: 9.79 µM
NCI-H226 lung
  GI50: 5.54 µM
  TGI: 11.6 µM
SK-MEL-28 melanoma
  GI50: 3.52 µM
  TGI: 7.54 µM
CAKI-1 renal
  GI50: 4.85 µM
  TGI: 9.29 µM
MDA-MB-231 breast
  GI50: 3.64 µM
  TGI: 7.8 µM
HCC-2998 colon
  GI50: 3.06 µM
  TGI: 7.41 µM
SNB-19 CNS
  GI50: 4.54 µM
  TGI: 9.09 µM
UACC-257 melanoma
  GI50: 4.6 µM
  TGI: 9.24 µM
HT29 colon
  GI50: 1.15 µM
  TGI: 4.08 µM
UACC-62 melanoma
  GI50: 2.15 µM
  TGI: 6.53 µM
K-562 leukemia
  GI50: 1.25 µM
  TGI: 7.23 µM
M14 melanoma
  GI50: 0.752 µM
  TGI: 1.95 µM
SK-MEL-2 melanoma
  GI50: 6.45 µM
  TGI: 11.6 µM
RXF 393 renal
  GI50: 3.39 µM
  TGI: 7.93 µM
NCI-H522 lung
  GI50: 4.39 µM
  TGI: 9.11 µM
A498 renal
  GI50: 4.02 µM
  TGI: 8.38 µM
HL-60(TB) leukemia
  GI50: 4.57 µM
  TGI: 10.9 µM
ACHN renal
  GI50: 5.1 µM
  TGI: 9.62 µM
SF-268 CNS
  GI50: 4.73 µM
  TGI: 9.79 µM
BT-549 breast
  GI50: 3.82 µM
  TGI: 8.09 µM
CCRF-CEM leukemia
  GI50: 3.79 µM
  TGI: 11.4 µM
TK-10 renal
  GI50: 5.49 µM
  TGI: 10.4 µM
A549 NSCLC
  GI50: 3.97 µM
  TGI: 8.43 µM
DU-145 prostate
  GI50: 4.89 µM
  TGI: 9.4 µM
IGROV1 ovarian
  GI50: 4.13 µM
  TGI: 8.91 µM
SN12C renal
  GI50: 4.9 µM
  TGI: 9.63 µM
OVCAR-4 ovarian
  GI50: 3.61 µM
  TGI: 7.64 µM
HS 578T breast
  GI50: 4.71 µM
  TGI: 11.8 µM
UO-31 renal
  GI50: 2.88 µM
  TGI: 7.12 µM
HCT-15 colon
  GI50: 1.09 µM
  TGI: 4.35 µM
HOP-92 NSCLC
  GI50: 4.17 µM
  TGI: 8.7 µM
SF-295 CNS
  GI50: 3.23 µM
  TGI: 7.25 µM
SW-620 colon
  GI50: 3.04 µM
  TGI: 7.33 µM
MALME-3M melanoma
  GI50: 2.72 µM
  TGI: 7.61 µM
MOLT-4 leukemia
  GI50: 3.88 µM
  TGI: 10.9 µM
786-0 renal
  GI50: 2.43 µM
  TGI: 6.85 µM
SNB-75 CNS
  GI50: 4.29 µM
  TGI: 8.58 µM
NCI-H23 lung
  GI50: 4.29 µM
  TGI: 8.98 µM
NCI/ADR-RES ovarian
  GI50: 4.54 µM
  TGI: 9.36 µM
LOX IMVI melanoma
  GI50: 1.51 µM
  TGI: 5.84 µM
HOP-62 NSCLC
  GI50: 4.68 µM
  TGI: 9.03 µM
OVCAR-8 ovarian
  GI50: 5.2 µM
  TGI: 10.2 µM
COLO 205 colon
  GI50: 3.57 µM
  TGI: 7.74 µM
OVCAR-5 ovarian
  GI50: 4.32 µM
  TGI: 8.65 µM
